Patent publication US20080118434A1 (The Board of the Trustees of The Leland Stanford J, priority 2003, published 2008)

Columns and labels:
[1] = tested on: hippocampal genes (mRNA levels); assay: Microarray analysis (GeneChip Rat Neurobiology U34) of gene expression in hippocampus of rats treated chronically with antidepressants; format: in vivo; settings: for hippocampal genes commonly regulated by desipramine and bupropion (list: NG,NG dimethylarginine dimethylaminohydrolase ... Retina S-antigen): desipramine 10 mg/kg/d; for hippocampal genes commonly regulated by desipramine and bupropion (list: NG,NG dimethylarginine dimethylaminohydrolase ... Retina S-antigen) / hippocampal genes commonly regulated by fluoxetine and bupropion (list: Transferrin ... Carbonic anhydrase 2): bupropion 20 mg/kg/day; for hippocampal genes commonly regulated by desipramine and bupropion (list: NG,NG dimethylarginine dimethylaminohydrolase ... Retina S-antigen) / hippocampal genes commonly regulated by fluoxetine and bupropion (list: Transferrin ... Carbonic anhydrase 2) / hippocampal genes commonly regulated by fluoxetine and desipramine (list: Glutathione peroxidase 1 ... Insulin like growth factor II, Somatostatin): i.p., four weeks, vs saline; for hippocampal genes commonly regulated by desipramine and bupropion (list: NG,NG dimethylarginine dimethylaminohydrolase ... Retina S-antigen) / hippocampal genes commonly regulated by fluoxetine and desipramine (list: Glutathione peroxidase 1 ... Insulin like growth factor II, Somatostatin): >20% fold change, p<0.05; for hippocampal genes commonly regulated by fluoxetine and bupropion (list: Transferrin ... Carbonic anhydrase 2): fluoxetine 10 mg/kg/d, selected results confirmed by real time RT-PCR; for hippocampal genes commonly regulated by fluoxetine and desipramine (list: Glutathione peroxidase 1 ... Insulin like growth factor II, Somatostatin): 10 mg/kg/d each
Procedure: (§1) Adult Sprague-Dawley male rats (250-300 g) were assigned to one of the following four groups (n=10 per group): 1. Saline injected animals (controls). 2. Bupropion treated animals. 3. Desipramine treated animals, and 4. Fluoxetine treated animals. Bupropion (20 mg/kg/day), Desipramine (10 mg/kg/d), Fluoxetine (10 mg/kg/d) and Saline were injected twice daily intraperitoneal (i.p.) for four weeks. Animals were sacrificed in the AM, the day after the last injection. Brains were obtained by rapid decapitation, and processed for gene array analysis (GAA), RT-PCR and in situ hybridization.
(§2) Four brains from each group were used for GAA, and real time RT-PCR confirmation. The remaining six brains were sectioned for in situ hybridization confirmation of the gene array analysis.
(§3) Array analysis was done using GeneChip® Rat Neurobiology U34 Arrays (Affymetrix). Whole hippocampus were dissected and total RNA samples were extracted using standard methods (Trizol, Invitrogen; Quigen Rneasy Mini Kit). Total RNA from each of the experimental groups were pooled. The column purified total RNA (10 μg) was converted to biotinylated cRNA hybridization probe following the manufacturers protocol. Labeled cRNA (30 ug) was fragmented in fragmentation buffer, and 15 ug were hybridized to the oligonucletide microarray in 300 μl of hybridization solution.
(§4) Samples from each group were run in independently labeled triplicates. The raw intensity data was analyzed with dCHIP software (Li and Wong, 2002).
Using a criteria of greater than 20% fold change (90% lower bound confidence limit) and a t-test value yielding a probability of p<0.05, we found 28 genes that were regulated by all three antidepressants compared to saline treatment. Nine of these genes were ESTs.
Regulation of these genes can conveniently be confirmed by Real Time RT-PCR, and in situ hybridization. Regulation of two of the genes has been confirmed by RT-PCR.

[2] = tested on: hypothalamic genes (mRNA levels); assay: Microarray analysis of gene expression in hypothalamus of rats treated chronically with antidepressants; format: in vivo, rat; settings: rats treated with fluoxetine, bupropion and/or desipramine; i.p. twice daily for four weeks
From the text: Membrane microarray analysis was used to compare expression levels of over 8,000 genes in the hypothalamus of rats treated chronically with a specific serotonin reuptake inhibitor (i.e., fluoxetine), a tricyclic antidepressant (i.e., desipramine), and a dopamine reuptake inhibitor (i.e., bupropion).
as §1, §2, §3, §4
Genes were identified using a criteria of greater than 20% fold change (90% lower bound confidence limit) and a t-test value yielding a probability of p<0.05.
The microarray analysis results were confirmed by in situ hybridization.

[3] = rats treated with bupropion and/or fluoxetine
[4] = rats treated with desipramine and/or bupropion
[5] = rats treated with fluoxetine, bupropion and/or desipramine, i.p. twice daily for four weeks
[6] = rats treated with fluoxetine and/or desipramine

| hippocampal genes commonly regulated by desipramine and bupropion (list: NG,NG dimethylarginine dimethylaminohydrolase ... Retina S-antigen) [1] | hippocampal genes commonly regulated by fluoxetine and bupropion (list: Transferrin ... Carbonic anhydrase 2) [1] | hippocampal genes commonly regulated by fluoxetine and desipramine (list: Glutathione peroxidase 1 ... Insulin like growth factor II, Somatostatin) [1] | Compound | number of hippocampal genes with altered mRNA levels [1, 3] | number of hippocampal genes with altered mRNA levels [1, 4] | number of hippocampal genes with altered mRNA levels [1, 5] | number of hypothalamic genes with altered mRNA levels [2] | number of hippocampal genes with altered mRNA levels [1, 6] |
| --- | --- | --- | --- | --- | --- | --- | --- | --- |
| commonly regulated | commonly regulated | – | CC(NC(C)(C)C)C(=O)c1cccc(Cl)c1 (stereo not drawn) [bupropion] | 11 | 46 | 18 | 3 | – |
| commonly regulated | – | commonly regulated | CNCCCN1c2ccccc2CCc2ccccc21 [desipramine] | – | 46 | 18 | 3 | 33 |
| – | commonly regulated | commonly regulated | CNCCC(Oc1ccc(C(F)(F)F)cc1)c1ccccc1 (stereo not drawn) [fluoxetine] | 11 | – | 18 | 3 | 33 |
